The test system of test [1] is SOD. As to the kind of experiment: SOD activity of rat liver extract (SOD Assay Kit-WST). It is filed as in vivo, SD rat. The following applies: liver extract of rats fed thirty days with sugar alcohol 0-10% in feed (Example 2). The text has this: RNA was extracted from a root of the Arabidopsis thaliana grown by a culture medium which contains a MS culture medium composition having sucrose at a concentration of 2% and a series of test substances at a final concentration of 0-2% each. This extracted specimen was supplied to the DNA microarray. In addition, RNA was extracted from the hepatocytes of SD rat grown with feed which contains a control feed having cornstarch as the main ingredient and a sugar alcohol as a series of test substances at a final concentration of 0-10%. This extracted specimen was supplied to the DNA microarray in the same way as described above. The protein of the ROS-scavenging enzyme in the model organism cells was separated and purified using AKT Aexplorer (FPLC). SOD activity measurements were carried out according to a standard protocol using SOD Assay Kit-WST. The livers of the rats fed in Example 2 each was crushed and then extracted with normal saline solution, and then freeze-dried. SOD activity was determined according to the same way as described in Example 3. […] In particular, the SOD activity of the erythritol-added group increased by 2 times.

In test [2] the test system is Cu/Zn-type SODs and SOD Cu Chaperone genes. Nature of the test: Transcriptomics with rat DNA chip on hepatocyte total RNA of fed rats. It is filed as in vivo. The following applies: hepatocytes of SD rats fed thirty days with feed containing sugar alcohol at final concentration 0-10%. The text has this:
The DNA microarray is a partial sequence of DNA arranged and fixed in a high-density manner on a slide glass which is divided into from several tens of thousands to hundreds of thousands. By using this, an expressed gene can be detected. Arabidopsis thaliana and a rat were used as model organisms. These organisms each was cultivated or bred with an arbitrary test substance and then an mRNA extracted from the cells of the cultivated or bred organism was hybridized with a target which is changed into cDNA with a reverse transcriptase. By carrying out this procedure, gene information expressed in the model organism was detected comprehensively, this procedure is so-called a transcriptomics. Furthermore, separation and purification of the protein of the ROS-scavenging enzyme in the model organisms' cells and determination of the enzyme activity were carried out, whereby the results obtained from the transcriptomics were directly verified. RNA was extracted from a root of the Arabidopsis thaliana grown by a culture medium which contains a MS culture medium composition having sucrose at a concentration of 2% and a series of test substances at a final concentration of 0-2% each. This extracted specimen was supplied to the DNA microarray. In addition, RNA was extracted from the hepatocytes of SD rat grown with feed which contains a control feed having cornstarch as the main ingredient and a sugar alcohol as a series of test substances at a final concentration of 0-10%. This extracted specimen was supplied to the DNA microarray in the same way as described above. The protein of the ROS-scavenging enzyme in the model organism cells was separated and purified using AKT Aexplorer (FPLC). SOD activity measurements were carried out according to a standard protocol using SOD Assay Kit-WST. Rats were fed for thirty days with a control diet containing 552.5 parts by weight of cornstarch, 250 parts by weight of casein, 35 parts by weight of mineral, 10 parts by weight of vitamin mixture, 2.5 parts by weight of choline bitartrate, 50 parts by weight of corn oil and 100 parts by weight of powdered cellulose, or feedstuffs containing the same composition as described in the control diet except that a portion of the powdered cellulose was replaced with the series of sugar alcohols so that the feedstuffs contain sugar alcohols at the final concentration of 0-10% each. The livers were taken out of the killed SD system rats and the total RNA was extracted from the hepatocytes, and transcriptomics was conducted using a rat DNA chip (the number of loading genes: 21,205, the number of probes per gene: 9, probe length: 60mer) of GeneFrontier Corporation.

Test [3] concerns SOD. Nature of the test: SOD activity of Arabidopsis thaliana root extract (SOD Assay Kit-WST). It is filed as in vivo. The following applies: root extract of Arabidopsis thaliana grown with sugar alcohol 0-2% (Example 1). The text has this: RNA was extracted from a root of the Arabidopsis thaliana grown by a culture medium which contains a MS culture medium composition having sucrose at a concentration of 2% and a series of test substances at a final concentration of 0-2% each. This extracted specimen was supplied to the DNA microarray. In addition, RNA was extracted from the hepatocytes of SD rat grown with feed which contains a control feed having cornstarch as the main ingredient and a sugar alcohol as a series of test substances at a final concentration of 0-10%. This extracted specimen was supplied to the DNA microarray in the same way as described above. The protein of the ROS-scavenging enzyme in the model organism cells was separated and purified using AKT Aexplorer (FPLC). SOD activity measurements were carried out according to a standard protocol using SOD Assay Kit-WST. The roots of the Arabidopsis thaliana grown in Example 1 were crushed and water-extracted and then freeze-dried. Then each of the dried extract was dissolved in the buffer solution of 0.1M calcium phosphate to obtain a specimen. The SOD activity was determined according to a standard protocol using SOD Assay Kit-WST (Dojin Kagaku Kenkyu-Sho). […] In particular, the SOD activity of the erythritol-added group increased by 2-5 times.

For test [4], the system named is Cu/Zn-type SODs and SOD Cu Chaperone genes. Nature of the test: Transcriptomics with Arabidopsis thaliana DNA chip on root total RNA. The format is in vivo. The following applies: root of Arabidopsis thaliana grown on 2% sugar-containing MS medium with sugar alcohol at final concentration 0-2%. The text has this: The DNA microarray is a partial sequence of DNA arranged and fixed in a high-density manner on a slide glass which is divided into from several tens of thousands to hundreds of thousands. By using this, an expressed gene can be detected. Arabidopsis thaliana and a rat were used as model organisms. These organisms each was cultivated or bred with an arbitrary test substance and then an mRNA extracted from the cells of the cultivated or bred organism was hybridized with a target which is changed into cDNA with a reverse transcriptase. By carrying out this procedure, gene information expressed in the model organism was detected comprehensively, this procedure is so-called a transcriptomics. Furthermore, separation and purification of the protein of the ROS-scavenging enzyme in the model organisms' cells and determination of the enzyme activity were carried out, whereby the results obtained from the transcriptomics were directly verified. RNA was extracted from a root of the Arabidopsis thaliana grown by a culture medium which contains a MS culture medium composition having sucrose at a concentration of 2% and a series of test substances at a final concentration of 0-2% each. This extracted specimen was supplied to the DNA microarray. In addition, RNA was extracted from the hepatocytes of SD rat grown with feed which contains a control feed having cornstarch as the main ingredient and a sugar alcohol as a series of test substances at a final concentration of 0-10%. This extracted specimen was supplied to the DNA microarray in the same way as described above. The protein of the ROS-scavenging enzyme in the model organism cells was separated and purified using AKT Aexplorer (FPLC). SOD activity measurements were carried out according to a standard protocol using SOD Assay Kit-WST. Total RNA was extracted from the root of Arabidopsis thaliana grown by a culture medium containing a 2% sugar-containing MS culture medium composition and a series of sugar alcohols at a final concentration of 0-2% each. Transcriptomics was conducted using a Arabidopsis thaliana DNA chip (the number of loading genes: 30,480 genes, the number of probe/gene: 6, probe length: 60mer) of GeneFrontier Corporation.

Consider four compounds from patent US20100037353A1, “METHOD FOR IMPROVING ACTIVITY OF REACTIVE OXYGEN SPECIES SCAVENGING ENZYMES” (B Food Science Co., Ltd., priority 2007, published 2010).

Consider `OC[C@@H](O)[C@H](O)[C@@H](O)CO` [xylitol], for which the “SOD activity compared to the control group” value with SOD [1] and in the test with SOD [3] was “promotion of the SOD activity was seen” each time. For the same compound, the “expression of Cu/Zn-type SODs and SOD Cu Chaperone genes” value (“expression” for short) in test [2] and in test [4] was “up-regulated” in each case.

Turning to `OC[C@@H](O)[C@@H](O)[C@H](O)[C@H](O)CO` [mannitol], the “SOD activity compared to the control group” value in the test on SOD [1] and in the test with SOD [3] was “promotion of the SOD activity was seen” throughout. Moreover, the “expression” value in test [2] and in test [4] was “up-regulated” each time.

As for `OC[C@@H](O)[C@@H](O)[C@H](O)[C@@H](O)CO` [sorbitol], the “SOD activity compared to the control group” value in the test with SOD [1] and with SOD [3] was “promotion of the SOD activity was seen” throughout. The “expression” value in test [2] and in test [4] was “up-regulated” throughout.

For `OC[C@@H](O)[C@@H](O)CO` [erythritol], the “SOD activity compared to the control group” value in the test with SOD [1] and with SOD [3] was “promotion of the SOD activity was seen” in each case. Also, the “increase of SOD activity compared to the control group” value with SOD [1] is 2 times; with SOD [3] it was 2-5 times. For the same compound, the “expression” value in test [2] and in test [4] was “up-regulated” throughout.
